Where two headings read alike, the source gives them in different places.
What was measured:
ES-2 cells = test: Invasive/metastatic potential of cancer cells, Boyden chemotaxis assay chambers; format: cell-based, human; conditions: 18-hour incubation; for IC50: Homo sapiens
Experimental: (§1) ES-2 is a human ovarian carcinoma. It was maintained in a modified McCoy's 5A medium (Gibco) and supplemented with 10% FBS (fetal bovine serum).
(§2) In this method, Boyden chemotaxis assay chambers (Costar Transwell plates) were used. Each Boyden chemotaxis assay chamber included a top chamber having a filter as the bottom side of the top chamber and a bottom well surrounding the top chamber. The bottom side of the top chamber used here was an 8 μm-pore polycarbonate filter.
0.35 ml of a medium with complete nutrition supplements as a chemo-attractant was added to each bottom well. Cancer cells (2×10^5 in 50 μl) were then plated on the filters in each of the top chambers. Compound 1 or uridine was diluted in the serum-free medium to 0.536 mg/ml and then was added to the top chambers, with the volume of 50 μl/chamber. The control tests were performed with 2 μM paclitaxel (positive control) or with medium only (negative control) in the top chambers.
After an 18-hour incubation, the cells in the top chambers were carefully emptied with sterile cotton buds. 100 μl XTT reagent (1 mg/ml) was added to each of the bottom wells. After incubating for 4 hours, absorbance (O.D.) was measured at 450 nm with the reference wavelength at 690 nm. The ratio of the OD from the bottom wells to that of the OD from the bottom wells of the control tests was taken as the invasive potential. Results presented are from three different independent experiments.

MMP-2 = target: T1, MMP-2 (Homo sapiens, UniProt P08253); test: Inhibition of MMP-2 gelatinase activity on microtiter plates (biotinylated gelatin hydrolysis); format: biochemical
T1 construct: The purified enzyme was already an active form with a molecular weight of about 64K; endogenous in cells; host or cells: ES-2 human ovarian carcinoma cells (secreted into serum-free conditioned medium; purified on gelatin-Sepharose 4B)
T1 sequence (P08253 110-660): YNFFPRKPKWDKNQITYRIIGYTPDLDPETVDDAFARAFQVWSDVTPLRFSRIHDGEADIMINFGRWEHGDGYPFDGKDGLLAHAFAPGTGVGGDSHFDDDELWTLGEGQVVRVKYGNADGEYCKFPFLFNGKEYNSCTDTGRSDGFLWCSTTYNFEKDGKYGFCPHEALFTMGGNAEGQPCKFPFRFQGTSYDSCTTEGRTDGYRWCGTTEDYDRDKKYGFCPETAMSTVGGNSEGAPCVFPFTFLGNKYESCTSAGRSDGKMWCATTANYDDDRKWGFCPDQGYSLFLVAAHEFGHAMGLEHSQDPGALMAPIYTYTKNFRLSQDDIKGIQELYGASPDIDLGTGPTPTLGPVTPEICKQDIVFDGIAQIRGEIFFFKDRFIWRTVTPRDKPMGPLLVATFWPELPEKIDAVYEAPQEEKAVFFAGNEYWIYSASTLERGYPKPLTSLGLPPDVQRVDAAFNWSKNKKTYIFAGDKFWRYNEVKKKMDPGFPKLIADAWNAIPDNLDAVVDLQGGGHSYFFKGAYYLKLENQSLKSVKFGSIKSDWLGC
Experimental: The MMP-2 enzyme was obtained from cancer cells and then purified by using gelatin-Sephose 4B (Pharmacia). Serum-free conditioned medium from human ovarian carcinoma cells, ES-2, was concentrated 50-fold and then MMP-2 enzyme was obtained by ultrafiltration using a 30,000 MW (molecular weight) cut-off membrane (YM-30, Amicon). The affinity matrix was equilibrated with an equilibration buffer, which was composed of 50 mM Tris.HCl (pH7.6), 10 mM EDTA and 0.01% Tween 20, containing 0.5 M NaCl. After extensive washing with the equilibration buffer containing 0.5 M NaCl, the bound enzyme was eluted with the equilibration buffer containing 1 M NaCl. […]
The plates were then read at 450 nm (reference length 470 nm) in a microtiter plate reader (Dynex, MRX). The absorbance at 450 nm […] as the concentration of MMP-2 […]. […] Therefore, in the reaction of BG with MMP-2, the absorbance should be a factor 3-5 times lower than an absorbance reading of BG without MMP-2 enzyme (a gelatinase). […]
The effect of Compound 1 on MMP-2 activity was measured by basically the same procedure as described in the section, GELATINASE ASSAY ON MICROTITER PLATES. As Compound 1 was similar to uridine in chemical structure, the effect of a commercial available uridine (Sigma, U-3750, D-Ribose) on MMP-2 activity was also measured for comparison in the experiment. […]

[1] = test system: COLO205, PC-3, A375, A549 cell lines; test: Invasive/metastatic potential of cancer cells, Boyden chemotaxis assay chambers, other four cell lines; format: cell-based, human; conditions: same concentration ranges as ES-2, data not shown
Experimental: (§3) COLO205 is a human colon cancer-derived cell line. It was maintained in a RPMI 1640 medium (Hyclone), and supplemented with 10% heat-inactivated FBS.
(§4) PC-3 is a human prostate cancer-derived cell line. It was maintained in a Ham's F12 K medium (Gibco) and supplemented with 7% FBS.
(§5) A375 is a human malignant melanoma-derived cell line. It was maintained in a Dulbecco's modified Eagle's medium (DMEM, Hyclone) and supplemented with 10% FBS, 4 mM L-glutamine, 4.5 g/l glucose, and 1.0 mM sodium pyruvate.
(§6) A549 is a human lung cancer-derived cell line. It was maintained in a F12K medium (Gibco) and supplemented with 10% FBS.
as §2
0.35 ml of a medium with complete nutrition supplements as a chemo-attractant was added to each bottom well. Cancer cells (2×10^5 in 50 μl) were then plated on the filters in each of the top chambers. […]
After an 18-hour incubation, the cells in the top chambers were carefully emptied with sterile cotton buds. […] After incubating for 4 hours, absorbance (O.D.) was measured at 450 nm with the reference wavelength at 690 nm. […]

[2] = test system: ES-2, COLO205, PC-3, A375, and A549 cell lines; test: Proliferation/cytotoxicity assay on cancer cell lines (XTT assay); format: cell-based, human; conditions: 72 hours exposure, five cancer cell lines; for cellular viability (XTT assay): serially two-fold diluted from 0.258 mg/ml, data not shown
From the text: Five cancer-derived cell lines obtained from the American Type Culture Collection (ATCC) were used for the following proliferation/cytotoxicity assay. These cell lines are listed as follow:
as §1, §3, §4, §5, §6
To determine the cytotoxicity of Compound 1 or uridine on each cancer cell lines, ES-2, COLO205, PC-3, A375, and A549 cell lines were used. Each cancer cell line at a concentration of 1×10^4 cells/100 μl in each well (Falcon, MicroTest™ 96) was exposed to Compound 1, uridine or 1 μM paclitaxel (taxol, Sigma) for 72 hours in a complete medium. The Compound 1 and uridine were serially two-fold diluted from the concentration of 0.258 mg/ml.
Cellular viability was estimated by the tetrazolium dye reduction assay (XTT assay, Boehringer Mannheim). The amount of XTT reagent (a tetrazolium salt) added to the bottom wells was 100 μl/well and its concentration was 1 mg/ml. The-wells were incubated for 4 hours to allow viable cells to develop color. Absorbance (O.D.) was measured at 450 nm with the reference wavelength at 690 nm.

TNFα binding to TNFα-RI = TNFα binding to TNFα-RI (Homo sapiens, UniProt P01375+P19438); test: Inhibition of binding of biotinylated TNFα to TNFα-RI on coated microtiter plate
Chain of TNFα binding to TNFα-RI (P01375 77-233 limits assumed): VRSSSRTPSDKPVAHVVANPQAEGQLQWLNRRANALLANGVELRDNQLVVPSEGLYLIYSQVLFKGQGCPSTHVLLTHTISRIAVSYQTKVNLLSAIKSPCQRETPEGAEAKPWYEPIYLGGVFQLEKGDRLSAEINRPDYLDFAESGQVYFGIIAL
Chain of TNFα binding to TNFα-RI (P19438 22-211 limits assumed): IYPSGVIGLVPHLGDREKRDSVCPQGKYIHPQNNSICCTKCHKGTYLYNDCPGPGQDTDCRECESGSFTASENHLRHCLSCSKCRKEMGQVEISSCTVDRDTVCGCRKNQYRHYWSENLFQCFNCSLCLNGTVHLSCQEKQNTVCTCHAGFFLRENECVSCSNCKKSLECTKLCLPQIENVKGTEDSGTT
Experimental: 50 μl TNFα-RI at a concentration of 0.25 μg/ml was coated onto each well of a 96-well C-bottom microtiter plate (Nunc) in a 50 mM carbonate buffer (pH 9.5) at 4° C. overnight. The plate was washed 3 times with 200 μl TBST solution composed of 50 mM Tris.HCl (pH 7.35) containing 0.15 M NaCl and 0.05% Tween 20 to remove excess TNFα-RI. 200 μl/well of 0.5% BSA in PBS was added to each plate for blocking of the TNFα-RI. The reaction was carried out at 37° C. for 2 hours followed by washing 4 times with TBST to remove excess BSA.
Compound 1 was serially diluted in TBST solution. Biotinylated TNFα with a concentration of 0.5 μg/ml was mixed with Compound 1 solution in a volume ratio of 1:1. The reaction was allowed to proceed for 30 minutes at 37° C. with shaking at 500 rpm for allowing mixing. The mixtures were then added to the TNFα-RI coated plate, 50 μl for each well. The plate was then incubated at 37° C. for 2 hours with shaking again at 500 rpm, for competitive binding of the biotinylated TNFα and Compound 1.
Followed by washing 4 times with TBST, Extravidin-alkaline phosphatase (Sigma) diluted in TBST (1/5,000) was added to the plate, 50 μl/well. The plate was further incubated at 37° C. for 2 hours and then washed 4 times with TBST. […] After a 30-minute incubation at room temperature, absorbance at the wavelength of 405 nm was measured. […]

| SMILES | effect on invasive potential (ES-2 cells; data not shown) | inhibitory activity to MMP-2 (MMP-2; at the concentration of 0.82 mM, data not shown) | effect on invasive potential [1] | cellular viability (XTT assay) [2] | IC50 (ES-2 cells; XTT readout of bottom wells, read-out: 50% inhibitory dose (IC50) on invasive potential) | IC50 (ES-2 cells; printed conversion of 23 μg/ml, read-out: 50% inhibitory dose (IC50) on invasive potential, converted to molar) | inhibition activity on TNFα binding to TNFα-RI compared with Suramin (TNFα binding to TNFα-RI; FIG. 6, Suramin as comparative compound) | IC50 (TNFα binding to TNFα-RI; biotinylated TNFα 0.5 μg/ml mixed 1:1 with compound, TNFα-RI coated plate, read-out: 50% inhibitory dose (IC50) on TNFα binding to TNFα-RI) | IC50 (MMP-2; purified MMP-2 from ES-2 conditioned medium, biotinylated gelatin substrate, read-out: 50% inhibitory dose (IC50) on MMP-2 activity) | inhibition of cell proliferation (XTT assay) ([2]; paclitaxel positive control) |
| --- | --- | --- | --- | --- | --- | --- | --- | --- | --- | --- |
| O=c1ccn([C@@H]2O[C@H](CO)[C@@H](O)[C@H]2O)c(=O)[nH]1 [uridine, reference compound] | did not show any effect | no inhibitory activity | did not show any effect | did not reduce cellular viability | – | – | – | – | – | – |
| O=c1ccn(C2OC(CCO)C(O)C2O)c(=O)[nH]1 (stereo not drawn) [Compound 1, 1-[3,4-dihydroxy-5-(2-hydroxyethyl)tetrahydrofuran-2-yl]pyrimidine-2,4(1H,3H)-dione] | – | – | not significantly affected | did not reduce cellular viability | 23 µg/mL | 90 µM | smaller than that of Suramin | 50 µM | 150 µM | – |
| CC(=O)O[C@H]1C(=O)[C@@]2(C)[C@H]([C@H](OC(=O)c3ccccc3)[C@]3(O)C[C@H](OC(=O)[C@H](O)[C@@H](NC(=O)c4ccccc4)c4ccccc4)C(C)=C1C3(C)C)[C@]1(OC(C)=O)CO[C@@H]1C[C@@H]2O [paclitaxel] | – | – | – | – | – | – | – | – | – | inhibition of cell proliferation was proportional to the concentration of paclitaxel |

Source: patent publication US6683060B2, “Matrix metalloproteinase and tumor necrosis factor inhibitors” (Advanced Gene Technology Corp., priority 2002, dated 2004)
